Experimental data reported in patent US6979676B2 (priority 2002, dated 2005).
Where two headings read alike, the source gives them in different places.

Tests used:
[1] = Solubility of Formula I in various vehicles; format: physicochemical; details: thermodynamic from solid, room temperature after 1 day
[2] = Degradation rate of Formula I in various pH conditions (T90 at 80° C.); format: physicochemical
[3] = Stability of Formula I in various PG/buffer solutions (HPLC purity, initial point vs 80° C./8 days); format: physicochemical; details: initial point and 80° C./8 days
[4] = physchem
[5] = Stability of Formula I in PG/water or PG/buffers (HPLC purity, initial point vs 80° C./4 days); format: physicochemical; details: 5 mg/mL, initial point and 80° C./4 days
[6] = 50% PG/75 mM citrate buffer (pH = 4)

SMILES: O=C1c2c(c3c4ccc(O)cc4n(C4OC(CO)C(O)C(O)C4O)c3c3[nH]c4cc(O)ccc4c23)C(=O)N1NC(CO)CO [Formula I, 12,13-dihydro-2,10-dihydroxy-6-N-(1-hydroxymethyl-2-hydroxyethylamino)-13-(β-D-glucopyranosyl)-5H-indolo[2,3-α]pyrrolo[3,4-c]carbazole-5,7(6H)-dione]
- Stability of Formula I (purity by HPLC) (1 month, 0.15 mg/mL): −0.68%
- Stability of Formula I (purity by HPLC) (50% PEG 400/water, 10 mg/mL, initial point and 40° C./1 month): −2.9%
- Stability of Formula I (purity by HPLC) (50% PG/water, 10 mg/mL, initial point and 40° C./1 month): −0.03%
- solubility at 1 day ([1]; aqueous buffer, 50 mM citrate buffer (pH = 3)): 920 µg/mL
- solubility at 1 day ([1]; aqueous buffer, 50 mM citrate buffer (pH = 4)): 810 µg/mL
- solubility at 1 day ([1]; aqueous buffer, 50 mM citrate buffer (pH = 5)): 720 µg/mL
- solubility at 1 day ([1]; aqueous buffer, 50 mM citrate buffer (pH = 6)): 720 µg/mL
- solubility at 1 day ([1]; aqueous buffer, 50 mM citrate buffer (pH = 7)): 670 µg/mL
- solubility at 1 day ([1]; aqueous with cosolvent or surfactant or cyclodextrin, 25% PEG 400/water (w/v)): 16000 µg/mL
- solubility at 1 day ([1]; aqueous with cosolvent or surfactant or cyclodextrin, 25% PG/water (w/v)): 4000 µg/mL
- solubility at 1 day ([1]; aqueous with cosolvent or surfactant or cyclodextrin, 40% PG/water (w/v)): 12000 µg/mL
- solubility at 1 day ([1]; aqueous with cosolvent or surfactant or cyclodextrin, 50% PEG 400/water (w/v)): 25000 µg/mL
- solubility at 1 day ([1]; aqueous with cosolvent or surfactant or cyclodextrin, 50% PG/50 mM citrate buffer (pH = 3)): 24000 µg/mL
- solubility at 1 day ([1]; aqueous with cosolvent or surfactant or cyclodextrin, 50% PG/50 mM citrate buffer (pH = 4)): 25000 µg/mL
- solubility at 1 day ([1]; aqueous with cosolvent or surfactant or cyclodextrin, 50% PG/50 mM citrate buffer (pH = 5)): 26000 µg/mL
- solubility at 1 day ([1]; aqueous with cosolvent or surfactant or cyclodextrin, 50% PG/50 mM citrate buffer (pH = 6)): 27000 µg/mL
- solubility at 1 day ([1]; aqueous with cosolvent or surfactant or cyclodextrin, 50% PG/50 mM citrate buffer (pH = 7)): 27000 µg/mL
- solubility at 1 day ([1]; aqueous with cosolvent or surfactant or cyclodextrin, 50% PG/water (w/v)): 24000 µg/mL
- solubility at 1 day ([1]; aqueous with cosolvent or surfactant or cyclodextrin, 75% PEG 400/water (w/v)): 24000 µg/mL
- solubility at 1 day ([1]; aqueous with cosolvent or surfactant or cyclodextrin, 75% PG/water (w/v)): 45000 µg/mL
- solubility at 1 day ([1]; organic solvent or mixture, 100% PEG 400): < 670 µg/mL
- solubility at 1 day ([1]; organic solvent or mixture, 100% PG): 1200 µg/mL
- solubility at 1 day ([1]; saline or isotonic, 5% glucose/water): 600 µg/mL
- solubility at 1 day ([1]; water): 620 µg/mL
- T90 (time required to degrade Formula I to 90% of the initial concentration) ([2]; pH 2): 0.9 days
- T90 (time required to degrade Formula I to 90% of the initial concentration) ([2]; pH 3, extrapolated data): 19 days
- T90 (time required to degrade Formula I to 90% of the initial concentration) ([2]; pH 4, extrapolated data): 89 days
- T90 (time required to degrade Formula I to 90% of the initial concentration) ([2]; pH 5, extrapolated data): 7.8 days
- T90 (time required to degrade Formula I to 90% of the initial concentration) ([2]; pH 6): 2.3 days
- T90 (time required to degrade Formula I to 90% of the initial concentration) ([2]; pH 7): 0.233 days
- T90 (time required to degrade Formula I to 90% of the initial concentration) ([2]; pH 8): 0.0194 days
- T90 (time required to degrade Formula I to 90% of the initial concentration) ([2]; pH 9): 0.00486 days
- T90 (time required to degrade Formula I to 90% of the initial concentration) ([2]; pH 10): 0.000833 days
- Stability of Formula I (purity by HPLC) ([3]; 50% PG/50 mM citrate buffer (pH = 4)): −5.50%
- Stability of Formula I (purity by HPLC) ([3]; 50% PG/50 mM tartrate buffer (pH = 4)): −6.12%
- Stability of Formula I (purity by HPLC) [3, 6]: −6.49%
- Stability of Formula I (purity by HPLC) ([3]; 50% PG/water): −30.68%
- solubility ([4]; aqueous with cosolvent or surfactant or cyclodextrin): 10000 µg/mL
- solubility ([4]; saline or isotonic): 150 µg/mL
- Stability of Formula I (purity by HPLC) ([5]; 50% PG/75 mM citrate buffer (pH = 3)): −2.4%
- Stability of Formula I (purity by HPLC) [5, 6]: −2.2%
- Stability of Formula I (purity by HPLC) ([5]; 50% PG/75 mM citrate buffer (pH = 5)): −2.9%
- Stability of Formula I (purity by HPLC) ([5]; 50% PG/water): −9.3%
